Patent publication US10799522B2, “Compositions and methods relating to galectin detection” (Wayne State University, priority 2015, dated 2020)

Experiment: radiation dosimetry estimates for human patients
Details: adult male
[1] = target organ Urinary Bladder Wall

OCC1OC(SC2OC(CO)C(O)C(n3cc(-c4cccc([18F])c4)nn3)C2O)C(O)C(n2cc(-c3cccc(F)c3)nn2)C1O [[^18F]FPTDG, 3-(3-[^18F]fluorophenyltriazolyl)-3-deoxy-3′-(3-fluorophenyltriazolyl)-3′-deoxy-1-thio-β-D-digalactopyranoside]
Estimated organ dose, ED Cont. (target organ Ovaries): 1.20 mSv per 370 MBq dose or 10 mCi | Estimated organ dose, EDE Cont. (target organ Ovaries): 1.50 mSv per 370 MBq dose or 10 mCi | Estimated organ dose, Photon (target organ Ovaries): 4.32 mSv per 370 MBq dose or 10 mCi | Estimated organ dose, Total (target organ Ovaries): 6.02 mSv per 370 MBq dose or 10 mCi | Estimated organ dose, Alpha (target organ Pancreas): 0 mSv per 370 MBq dose or 10 mCi | Estimated organ dose, Beta (target organ Pancreas): 1.70 mSv per 370 MBq dose or 10 mCi | Estimated organ dose, ED Cont. (target organ Pancreas): 0.03 mSv per 370 MBq dose or 10 mCi | Estimated organ dose, EDE Cont. (target organ Pancreas): 0.35 mSv per 370 MBq dose or 10 mCi | Estimated organ dose, Photon (target organ Pancreas): 4.2 mSv per 370 MBq dose or 10 mCi | Estimated organ dose, Total (target organ Pancreas): 5.90 mSv per 370 MBq dose or 10 mCi | Estimated organ dose, Alpha (target organ Red Marrow): 0 mSv per 370 MBq dose or 10 mCi | Estimated organ dose, Beta (target organ Red Marrow): 1.21 mSv per 370 MBq dose or 10 mCi | Estimated organ dose, ED Cont. (target organ Red Marrow): 0.51 mSv per 370 MBq dose or 10 mCi | Estimated organ dose, EDE Cont. (target organ Red Marrow): 0.51 mSv per 370 MBq dose or 10 mCi | Estimated organ dose, Photon (target organ Red Marrow): 3.03 mSv per 370 MBq dose or 10 mCi | Estimated organ dose, Total (target organ Red Marrow): 4.24 mSv per 370 MBq dose or 10 mCi | Estimated organ dose, Alpha (target organ Skin): 0 mSv per 370 MBq dose or 10 mCi | Estimated organ dose, Beta (target organ Skin): 1.70 mSv per 370 MBq dose or 10 mCi | Estimated organ dose, ED Cont. (target organ Skin): 0.03 mSv per 370 MBq dose or 10 mCi | Estimated organ dose, EDE Cont. (target organ Skin): 0.00 mSv per 370 MBq dose or 10 mCi | Estimated organ dose, Photon (target organ Skin): 1.76 mSv per 370 MBq dose or 10 mCi | Estimated organ dose, Total (target organ Skin): 3.46 mSv per 370 MBq dose or 10 mCi | Estimated organ dose, Alpha (target organ Small Intestine): 0 mSv per 370 MBq dose or 10 mCi | Estimated organ dose, Beta (target organ Small Intestine): 4.15 mSv per 370 MBq dose or 10 mCi | Estimated organ dose, ED Cont. (target organ Small Intestine): 0.04 mSv per 370 MBq dose or 10 mCi | Estimated organ dose, EDE Cont. (target organ Small Intestine): 0.50 mSv per 370 MBq dose or 10 mCi | Estimated organ dose, Photon (target organ Small Intestine): 4.21 mSv per 370 MBq dose or 10 mCi | Estimated organ dose, Total (target organ Small Intestine): 8.36 mSv per 370 MBq dose or 10 mCi | Estimated organ dose, Alpha (target organ Spleen): 0 mSv per 370 MBq dose or 10 mCi | Estimated organ dose, Beta (target organ Spleen): 1.70 mSv per 370 MBq dose or 10 mCi | Estimated organ dose, ED Cont. (target organ Spleen): 0.03 mSv per 370 MBq dose or 10 mCi | Estimated organ dose, EDE Cont. (target organ Spleen): 0.00 mSv per 370 MBq dose or 10 mCi | Estimated organ dose, Photon (target organ Spleen): 3.52 mSv per 370 MBq dose or 10 mCi | Estimated organ dose, Total (target organ Spleen): 5.22 mSv per 370 MBq dose or 10 mCi | Estimated organ dose, Alpha (target organ Stomach Wall): 0 mSv per 370 MBq dose or 10 mCi | Estimated organ dose, Beta (target organ Stomach Wall): 9.17 mSv per 370 MBq dose or 10 mCi | Estimated organ dose, ED Cont. (target organ Stomach Wall): 1.79 mSv per 370 MBq dose or 10 mCi | Estimated organ dose, EDE Cont. (target organ Stomach Wall): 0.90 mSv per 370 MBq dose or 10 mCi | Estimated organ dose, Photon (target organ Stomach Wall): 5.78 mSv per 370 MBq dose or 10 mCi | Estimated organ dose, Total (target organ Stomach Wall): 14.90 mSv per 370 MBq dose or 10 mCi | Estimated organ dose, Alpha (target organ Testes): 0 mSv per 370 MBq dose or 10 mCi | Estimated organ dose, Beta (target organ Testes): 1.70 mSv per 370 MBq dose or 10 mCi | Estimated organ dose, ED Cont. (target organ Testes): 0.00 mSv per 370 MBq dose or 10 mCi | Estimated organ dose, EDE Cont. (target organ Testes): 0.00 mSv per 370 MBq dose or 10 mCi | Estimated organ dose, Photon (target organ Testes): 2.67 mSv per 370 MBq dose or 10 mCi | Estimated organ dose, Total (target organ Testes): 4.37 mSv per 370 MBq dose or 10 mCi | Estimated organ dose, Alpha (target organ Thymus): 0 mSv per 370 MBq dose or 10 mCi | Estimated organ dose, Beta (target organ Thymus): 1.70 mSv per 370 MBq dose or 10 mCi | Estimated organ dose, ED Cont. (target organ Thymus): 0.02 mSv per 370 MBq dose or 10 mCi | Estimated organ dose, EDE Cont. (target organ Thymus): 0.00 mSv per 370 MBq dose or 10 mCi | Estimated organ dose, Photon (target organ Thymus): 2.63 mSv per 370 MBq dose or 10 mCi | Estimated organ dose, Total (target organ Thymus): 4.33 mSv per 370 MBq dose or 10 mCi | Estimated organ dose, Alpha (target organ Thyroid): 0 mSv per 370 MBq dose or 10 mCi | Estimated organ dose, Beta (target organ Thyroid): 1.70 mSv per 370 MBq dose or 10 mCi | Estimated organ dose, ED Cont. (target organ Thyroid): 0.22 mSv per 370 MBq dose or 10 mCi | Estimated organ dose, EDE Cont. (target organ Thyroid): 0.13 mSv per 370 MBq dose or 10 mCi | Estimated organ dose, Photon (target organ Thyroid): 2.78 mSv per 370 MBq dose or 10 mCi | Estimated organ dose, Total (target organ Thyroid): 4.48 mSv per 370 MBq dose or 10 mCi | Estimated organ dose, Alpha (target organ ULI Wall): 0 mSv per 370 MBq dose or 10 mCi | Estimated organ dose, Beta (target organ ULI Wall): 1.70 mSv per 370 MBq dose or 10 mCi | Estimated organ dose, ED Cont. (target organ ULI Wall): 0.03 mSv per 370 MBq dose or 10 mCi | Estimated organ dose, EDE Cont. (target organ ULI Wall): 0.00 mSv per 370 MBq dose or 10 mCi | Estimated organ dose, Photon (target organ ULI Wall): 4.02 mSv per 370 MBq dose or 10 mCi | Estimated organ dose, Total (target organ ULI Wall): 5.71 mSv per 370 MBq dose or 10 mCi | Estimated organ dose, Alpha [1]: 0 mSv per 370 MBq dose or 10 mCi | Estimated organ dose, Beta [1]: 1.70 mSv per 370 MBq dose or 10 mCi | Estimated organ dose, ED Cont. [1]: 0.27 mSv per 370 MBq dose or 10 mCi | Estimated organ dose, EDE Cont. [1]: 0.00 mSv per 370 MBq dose or 10 mCi | Estimated organ dose, Photon [1]: 3.63 mSv per 370 MBq dose or 10 mCi | Estimated organ dose, Total [1]: 5.33 mSv per 370 MBq dose or 10 mCi | Estimated organ dose, Alpha (target organ Uterus): 0 mSv per 370 MBq dose or 10 mCi | Estimated organ dose, Beta (target organ Uterus): 1.70 mSv per 370 MBq dose or 10 mCi | Estimated organ dose, ED Cont. (target organ Uterus): 0.03 mSv per 370 MBq dose or 10 mCi | Estimated organ dose, EDE Cont. (target organ Uterus): 0.35 mSv per 370 MBq dose or 10 mCi | Estimated organ dose, Photon (target organ Uterus): 4.06 mSv per 370 MBq dose or 10 mCi | Estimated organ dose, Total (target organ Uterus): 5.76 mSv per 370 MBq dose or 10 mCi
